# US20230109839A1, “THERAPEUTIC AGENT FOR TAUOPATHIES” (SUMITOMO PHARMA CO., LTD., priority 2020, published 2023)
# Biological target: T1, human Nav1.1 (Homo sapiens, UniProt P35498)
# T1 construct: host or cells: HEK293
# Assay: Amplification of Nav1.1-derived voltage-gated sodium current (Nav1.1 current), automated patch clamp (Test 1)
# Assay type: cell-based
# Settings: Concentration for evaluation 1 μM; HEK293 cell line stably expressing human Nav1.1
# How it was run: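 HEK293 cells stably expressing human Nav1.1, restricted to cells with >500 pA current, were recorded by automated voltage-clamp patch clamp with a ramp voltage stimulus. Compounds were applied in HEPES-buffered extracellular solution with 1% DMSO. Amplification (%) = 100×(peak or AUC after/before compound)−100.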
row,Compound,Nav1.1 current amplification rate (%)
1,CC1CC=C(c2ccc(=O)n(CC(=O)N3CC=C(c4ccncc4)CC3)n2)CC1 (centres unmarked) [Example 419],66%
2,CN(c1cnc2cnn(CC(=O)N3CCc4c(C5CN(C(=O)CO)C5)cccc43)c2n1)C1CCC1 [Example 696],306%
3,CC1CC=C(c2ccc(=O)n(CC(=O)N3CCc4c(CNC5CCOC5)cccc43)n2)CC1 (centres unmarked) [Example 316],81%
4,CN1CCN(c2cccc3c2CCN3C(=O)Cn2ncc3ncc(N(C)C4CCC4)nc32)CC1 [Example 697],21%

# Other lines, results leading:
row,Nav1.1 current amplification rate (%),Compound
1,252%,CC1CCN(c2cnc3cnn(CC(=O)Nc4ccc5cncnc5c4)c3n2)CC1 [Example 642]
2,71%,CN(c1cnc2cnn(CC(=O)Nc3ccc4ncncc4c3)c2n1)C1CC1 [Example 728]
3,71%,CC1CC=C(c2ccc(=O)n(CC(=O)Nc3ccn4cnnc4c3)n2)CC1 (centres unmarked) [Example 358]
4,52%,CC1CC=C(c2ccc(=O)n(CC(=O)Nc3cnc4nccn4c3)n2)CC1 (centres unmarked) [Example 337]
5,27%,CN(c1ncc2cnn(CC(=O)Nc3ccn4ncnc4c3)c2n1)C1CC1 [Example 794]
6,33%,CC1CCN(c2cnc3cnn(CC(=O)Nc4ccc5ncnn5c4)c3n2)CC1(F)F (centres unmarked) [Example 658]
7,36%,CCC1(C)CCN(c2ncc3cnn(CC(=O)Nc4ccn5ncnc5c4)c3n2)CC1 [Example 789]
8,33%,CN(c1cnc2cnn(CC(=O)Nc3cncc(Br)c3)c2n1)C1CCC1 [Example 692]
9,174%,CC1CCN(c2ncc3cnn(CC(=O)Nc4ccn5ncnc5c4)c3n2)CC1(F)F (centres unmarked) [Example 788]
10,70%,O=C(Cn1ncc2ncc(C3=CCC4(CC3)CC4)nc21)Nc1ccc2ncnn2c1 [Example 656]
11,161%,O=C(Cn1ncc2cnc(N3CCC4(CC4)C(F)(F)C3)nc21)Nc1ccn2ncnc2c1 [Example 792]
12,67%,Cc1cc(NC(=O)Cn2ncc3ncc(N(C)C4CCC4)nc32)cc2ncnn12 [Example 687]
13,77%,CN(c1cnc2cnn(CC(=O)Nc3ccn4ccnc4c3)c2n1)C1CCCC1 [Example 670]

# Same assay, conditions: Concentration for evaluation 3 μM; HEK293 cell line stably expressing human Nav1.1
row,Compound,Nav1.1 current amplification rate (%)
1,CC1CC=C(c2ccc(=O)n(CC(=O)N3CCN(c4cncc(OC(F)F)c4)CC3)n2)CC1 (centres unmarked) [Example 405],268%
2,Cc1ncc(-c2cccc3c2CCN3C(=O)Cn2nc(C3=CCC(C)CC3)ccc2=O)cn1 (centres unmarked) [Example 264],597%
3,COc1cc(N2CCN(C(=O)Cn3nc(C4=CCC(C)CC4)ccc3=O)CC2)ccc1F (centres unmarked) [Example 413],27%
4,CN(c1cnc2cnn(CC(=O)N3CCN(c4cccc(F)c4)CC3)c2n1)C1CC1 [Example 714],11%
5,CC1CC=C(c2ccc(=O)n(CC(=O)N3CCOc4c(-c5cn[nH]c5)cccc43)n2)CC1 (centres unmarked) [Example 290],94%

# Continued, values first:
row,Nav1.1 current amplification rate (%),Compound
1,11%,CN(c1cnc2cnn(CC(=O)N3CCc4cc(C#N)ccc43)c2n1)C1CCC1 [Example 691]
2,233%,COCc1nc2cc(NC(=O)Cn3nc(C4=CCC(C)CC4)ccc3=O)ccc2o1 (centres unmarked) [Example 325]

# Same assay, conditions: Concentration for evaluation 10 μM; HEK293 cell line stably expressing human Nav1.1
row,Compound,Nav1.1 current amplification rate (%)
1,CC1CCN(c2ccc(=O)n(CC(=O)Nc3ccc4oc(N(C)C)nc4c3)n2)CC1 [Example 91],93%
2,CC1(C)CC=C(c2ccc(=O)n(CC(=O)N3CCN(c4cncc(F)c4)CC3)n2)C1 [Example 483],175%
3,N#Cc1ccc(NC(=O)Cn2nc(N3CCCCCCC3)ccc2=O)cc1 [Example 12],241%
4,CC1CC=C(c2ccc(=O)n(CC(=O)N3CC=C(c4cccnc4)CC3)n2)CC1 (centres unmarked) [Example 402],323%
5,CC1CC=C(c2ccc(=O)n(CC(=O)N3C[C@@H](C)N(c4cccnc4)[C@@H](C)C3)n2)CC1 (some centres unmarked) [Example 416],383%
6,CC1CC=C(c2ccc(=O)n(CC(=O)Nc3ccn4ccnc4n3)n2)CC1 (centres unmarked) [Example 242],97%
7,N#Cc1ccc(NC(=O)Cn2nc(C3CCCCC3)ccc2=O)cc1 [Example 40],20%
8,CC1CC=C(c2ccc(=O)n(CC(=O)NC3CN(c4ccccc4)C3)n2)CC1 (centres unmarked) [Example 372],52%
9,Cc1noc2ccc(NC(=O)Cn3nc(N4CCC(C)CC4)ccc3=O)cc12 [Example 70],68%
10,N#Cc1ccc(NC(=O)Cn2nc(N3CCCCCC3)ccc2=O)cc1 [Example 11],205%
11,COc1cncc(NC(=O)Cn2nc(N3CCC(C)CC3)ccc2=O)c1 [Example 64],11%
12,CC1CC=C(c2ccc(=O)n(CC(=O)N3CCN(c4nccs4)CC3)n2)CC1 (centres unmarked) [Example 414],40%
13,CC1CCN(c2ccc(=O)n(CC(=O)Nc3ccc4oc(=O)n(C)c4c3)n2)CC1 [Example 81],69%
14,COc1cc(C2=CCC(C(F)(F)F)CC2)nn(CC(=O)Nc2ccn3ccnc3c2)c1=O (centres unmarked) [Example 462],124%
15,CC1CCN(c2ccc(=O)n(CC(=O)Nc3ccnc(N(C)C)c3)n2)CC1 [Example 57],48%

# Next, values leading:
row,Nav1.1 current amplification rate (%),Compound
1,333%,O=C(Cn1nc(C2=CCC(C(F)(F)F)CC2)ccc1=O)Nc1ccc2ocnc2c1 (racemic) [Example 446]
2,11%,Cc1noc2ccc(NC(=O)Cn3nc(C4=CCC(C)CC4)ccc3=O)cc12 (racemic) [Example 423]
3,244%,CC1(C)CC=C(c2ccc(=O)n(CC(=O)Nc3ccc4c(c3)OCC4)n2)CC1 [Example 426]
4,44%,CC1CC=C(c2ccc(=O)n(CC(=O)Nc3ccc(CO)nc3)n2)CC1 (centres unmarked) [Example 376]
5,221%,Cc1cc(C2=CCC(C)(C)CC2)nn(CC(=O)Nc2ccn3ccnc3c2)c1=O [Example 460]

# Same assay, conditions: Concentration for evaluation 50 μM; HEK293 cell line stably expressing human Nav1.1
row,Nav1.1 current amplification rate (%),Compound
1,41%,Cc1cc2nc(NC(=O)Cn3nc(C4=CCC(C)CC4)ccc3=O)ccn2n1 (centres unmarked) [Example 340]
2,43%,CC1CC=C(c2ccc(=O)n(CC(=O)Nc3ccc4ncccc4c3)n2)CC1 (centres unmarked) [Example 357]

# Same assay, conditions: HEK293, Concentration for evaluation 1 μM; HEK293 cell line stably expressing human Nav1.1; read-out: Nav1.1 current amplification rate (%)
row,activation at 1 µM,Compound
1,43%,CN(c1cnc2cnn(CC(=O)Nc3ccc(C#N)nn3)c2n1)C1CC(C)(C)C1 [Example 761]

# Same assay, conditions: HEK293, Concentration for evaluation 3 μM; HEK293 cell line stably expressing human Nav1.1; read-out: Nav1.1 current amplification rate (%)
row,activation at 3 µM,Compound
1,14%,"O=C(Cn1ncc2ncc(C3CCC3)nc21)Nc1ccn2ncnc2c1 [Example 576, 2-(6-Cyclobutyl-1H-pyrazolo[3,4-b]pyrazin-1-yl)-N-([1,2,4]triazolo[1,5-a]pyridin-7-yl)acetamide]"

# Same assay, conditions: HEK293, Concentration for evaluation 10 μM; HEK293 cell line stably expressing human Nav1.1; read-out: Nav1.1 current amplification rate (%)
row,activation at 10 µM,Compound
1,8%,Cc1cc(NC(=O)Cn2nc(C3=CCC(F)(F)CC3)ccc2=O)cc(C)n1 [Example 102]

# Same assay, conditions: HEK293, concentration for evaluation 1 μM; HEK293 stably expressing human Nav1.1; read-out: Nav1.1 current amplification rate (%)
row,activation at 1 µM,Compound
1,204%,CC1CC=C(c2ncc3cnn(CC(=O)Nc4ccn5ccnc5c4)c3n2)CC1 (centres unmarked) [Example 832]
2,164%,CN(CC1CCC1)c1ncc2cnn(CC(=O)Nc3ccc(C#N)nc3)c2n1 [Example 840]

# Same assay, conditions: concentration for evaluation 1 μM; HEK293 stably expressing human Nav1.1
row,Nav1.1 current amplification rate (%),Compound
1,86%,CC1CCN(c2ncc3cnn(CC(=O)Nc4ccc5ncnn5c4)c3n2)CC1(F)F (centres unmarked) [Example 815]
2,30%,COc1ccc(NC(=O)Cn2ncc3cnc(N4CCC5(CC5)C(F)(F)C4)nc32)cn1 [Example 825]
